Measurements: PMC8778091, “In Silico-Based Discovery of Natural Anthraquinones with Potential against Multidrug-Resistant E. coli” (Pharmaceuticals, 2022)
In brackets after ≈: the same amount, converted by molar mass. Where two headings read alike, the source gives them in different places.

Experiments:
[1] = molecular target: T1, E. coli DAla:D-Ala ligase (Ddl-B) (Escherichia coli, UniProt P07862); experiment: Ddl-B enzymatic activity assay (inorganic phosphate, absorbance 650 nm); assay type: biochemical
T1 construct: purchased ProFoldin DDA100KE
Experimental: (§1) Ddl-B and Gyr-B activity assays were performed according to the manufacturer protocols (ProFoldin, Catalogue No. DDA100KE, and Inspiralis, Catalogue No. ATPG001, UK).
Ddl-B enzymatic activity assay is based on measuring the inorganic phosphate generated from the D-Alanine: D-Alanine ligation reaction. The inorganic phosphate is detected by absorbance at 650 nm. The assay reactions and detection were performed by using a 96-well plate. Different concentrations of the test compounds and the reference inhibitor D-cycloserine were prepared in DMSO (from 10 µM to 1000 µM). […] Thereafter, 33 μL of 10× enzyme substrate was prepared by mixing 3.3 μL of 100× enzyme substrate with 29.7 μL of water. Finally, 27 μL of the premix with 3 μL of the 10× enzyme substrate in each well were mixed. After 60 min of incubation at 37 °C, 45 μL of MPA3000 dye was added into the 30 μL of the reaction mixture. After 5 min of incubation, absorbance was measured at 650 nm.

[2] = molecular target: T2, E. coli gyrase B43 domain (Gyr-B) (Escherichia coli, UniProt P0AES6); experiment: biochemical; assay type: biochemical
T2 construct: 20 μL of the enzyme (E. coli gyrase B43 domain; 20 μM concentration); purchased Inspiralis ATPG001
Experimental: as §1
Gyr-B assay measured the capability of the tested compounds to hinder the ATPase activity of Gyr-B subunits. This assay links the hydrolysis of ATP by gyrase to the conversion of NADH to NAD^+, which can be measured by a change in absorbance at 340 nm. The assay reactions and detection were performed using a 96-well plate. […] First, the assay mix was prepared by mixing 20 μL of the assay buffer (50 mM Tris.HCl (pH 7.5), 1 mM EDTA, 5 mM magnesium chloride, 5 mM DTT, 10% (w/v) glycerol), 1 μL phosphoenolpyruvate (80 mM in water), 1.5 μL pyruvate kinase/lactate dehydrogenase stock, 2 μL NADH (20 mM in water), and 58.8 μL water. Thereafter, 63.3 μL of assay mix and 10 μL of the test compound solution and 20 μL of the enzyme (E. coli gyrase B43 domain; 20 μM concentration) were added into the wells and mixed by pipetting. After incubation for 10 min at 25 °C, 6.7 uL of ATP (30 mM) was added to each well. After 60 min of incubation at 25 °C, the absorbance was measured at 340 nm.

[3] = test system: E. coli (MDR) a clinical isolate; experiment: MIC, agar dilution method, E. coli MDR a; assay type: cell-based; conditions: for MIC: Escherichia coli; for MIC (antibiotic susceptibility) E. coli MDRa: Table S3, unpublished data of microbiology unit, Beni Suef general hospital, same procedure
Experimental: (§2) The selected top-scoring hits were evaluated for their antibacterial effect against two clinical multidrug-resistant strains of enterotoxigenic E. coli. Both isolates were isolated as clinical samples from Beni Suef general hospital, Beni Suef, Egypt. […] MRSA (ATCC 25529) and VRSA (clinical isolate from Beni Suef general hospital, Beni Suef, Egypt) were also used to further evaluate the tested compounds against resistant Gram-positive bacteria.
(§3) Minimum inhibitory concentrations for the test compounds were analyzed following the standard agar dilution method using Meuller-Hinton (MH) agar medium against different Gram-negative and positive bacteria (Table 1). Firstly, the tested compounds were prepared as a stock suspension with a 10 mg/mL final concentration in DMSO. Subsequently, the prepared stocks were diluted in 10 mL molten soft agar (0.5% agar) to obtain a concentration range from 1–64 µg/mL, then mixed and poured over a surface of MH agar (2% agar) plates and left for solidification. Finally, exponentially grown (O.D 600 nm of 0.6) test strains (Table 1) were diluted to a final density of 10^6 CFU/mL in MH broth and spotted (1 µL/spot) over the soft agar. Then, the plates were left for drying and incubated at 37 °C for 18–20 h. Controls were conducted using DMSO seeded soft agar. At the end of the experiment, the MIC for each compound was identified as the minimum concentration that inhibited the growth of the tested strain. The experiments were carried out in triplicates.

[4] = test system: E. coli (MDR) b clinical isolate; experiment: MIC, agar dilution method, E. coli MDR b; assay type: cell-based; conditions: for MIC: Escherichia coli, read-out: MIC E. coli (MDR) b; for MIC (antibiotic susceptibility) E. coli MDRb: Table S3, unpublished data of microbiology unit, Beni Suef general hospital, same procedure
Experimental: as §2, §3

MRSA (ATCC 25529) = experiment: MIC, agar dilution method, MRSA; assay type: cell-based, S. aureus; conditions: Staphylococcus aureus, read-out: MIC MRSA
Experimental: as §2, §3

VRSA (clinical isolate) = experiment: MIC, agar dilution method, VRSA; assay type: cell-based, S. aureus; conditions: for MIC: Staphylococcus aureus, VRSA, read-out: MIC VRSA
Experimental: as §2, §3

[5] = Cellular toxicity against normal fibroblasts WI-38 (MTT); assay type: cell-based; conditions: human
Experimental: All selected top-scoring compounds were tested for their cellular toxicity against human fibroblasts cell line (WI-38). Cell line (WI-38; ATCC: CCL-75) was maintained in earth RPMI 1640 medium comprising 10% heat-inactivated fetal bovine serum (FBS) and grown at 37 °C and 5% CO2. The cell line was seeded on 96-well cell culture plates (2 × 10^4 cells/well). Cells were stimulated with tested compounds at different concentrations (from 1 to 50 µM) overnight in triplicates. Doxorubicin was used as a positive control. Cell viability was assessed by MTT assay. To normalize cell viability values, each plate included a triplicate of untreated cells considered as 100% viability, and a triplicate of cells treated with a cytotoxic mixture (200 ng/mL TNF, 200 ng/mL CD95L, 200 ng/mL TRAIL, 5 μg/mL CHX, 1% (w/v) sodium azide […]) considered as 0% viability. All other viability values were normalized according to the averages of these triplicates and analyzed by the Graph Pad Prism 5 software (La Jolla, CA, USA).

[6] = test system: tested bacterial strains (E. coli MDR, MRSA, VRSA); experiment: Antibacterial evaluation, tested bacterial strains taken together; assay type: cell-based; conditions: for MIC: Escherichia coli, E. coli MDR, MRSA, VRSA
Experimental: as §2, §3

[7] = range 1-64 µg/mL, 37 °C, 18-20 h, read-out: MIC E. coli (MDR) a
[8] = range 1-64 µg/mL, 37 °C, 18-20 h
[9] = 10-1000 µM tested, read-out: IC50 Ddl-B
[10] = WI-38 normal fibroblast cells, WI-38, 1 to 50 µM overnight, MTT, read-out: CC50
[11] = MDR isolates a and b not distinguished, read-out: MIC E. coli
[12] = WI-38, 1 to 50 µM overnight, MTT, read-out: CC50

SMILES	Ddl-B inhibition in words [1]	IC50 [2] [µM]	Ki [2] [µM]	MIC [3, 7] [µg/mL]	MIC [4, 8] [µg/mL]	MIC (MRSA (ATCC 25529); [8]) [µg/mL]	MIC (VRSA (clinical isolate); [8]) [µg/mL]	IC50 [1, 9] [µM]	Ki ([1]; read-out: Ki Ddl-B) [µM]	other results
CC(C)C1=CC2=CC[C@@H]3[C@](C)(CCC[C@@]3(C)C(=O)O)[C@H]2CC1 [Abietic acid]	inactive	1.4 ± 0.4	0.77 ± 0.1	64 (≈ 212 µM)	16 (≈ 52.9 µM)	> 64	16 (≈ 52.9 µM)			IC50 [1]: > 1000 µM; Ki [1]: > 1000 µM; CC50 [5]: > 50 µM; MIC [6]: 16 to 64 µg/mL (≈ 52.9 to 212 µM)
COc1cc(O)c2c(c1)C(=O)c1cc(C)cc(O)c1C2=O [Physcion]	more potent	10.9 ± 0.5	6.6 ± 0.9	2 (≈ 7.04 µM)	2 (≈ 7.04 µM)	2 (≈ 7.04 µM)	2 (≈ 7.04 µM)	244 ± 7.2	119 ± 9.1	CC50 [5, 10]: > 50 µM
O=C1c2cccc(O)c2C(=O)c2cccc(O)c21 [Anthrarufin]	comparable to the reference inhibitor D-cycloserine	6.93 ± 1.6	4.1 ± 1.6	2 (≈ 8.33 µM)	2 (≈ 8.33 µM)	2 (≈ 8.33 µM)	> 64	350 ± 7.4	345 ± 10.1	Gyr-B inhibition in words [2]: moderate activity; MIC [3, 11]: 2 µg/mL (≈ 8.33 µM); MIC VRSA (VRSA (clinical isolate); [8]): >64 µg/mL; CC50 [5, 10]: 29.7 ± 0.76 µM
CC1(C)S[C@@H]2[C@H](NC(=O)[C@H](N)c3ccccc3)C(=O)N2[C@H]1C(=O)O [Ampicillin, reference compound]										MIC (antibiotic susceptibility) E. coli MDRa [3]: > 64 µg/mL; MIC (antibiotic susceptibility) E. coli MDRb [4]: > 64 µg/mL
O=C1c2ccccc2C(=O)c2ccccc21 [Anthraquinone]	inactive	> 100		> 64	> 64	> 64	64 (≈ 307 µM)			Gyr-B inhibition in words [2]: inactive; Antibacterial activity in words, all tested bacteria [6]: inactive
O=C1c2ccccc2C(=O)c2c(O)ccc(O)c21 [Quinizarin]	moderately inhibited	38.8 ± 2.3	17.9 ± 1.4	64 (≈ 266 µM)	64 (≈ 266 µM)	64 (≈ 266 µM)	16 (≈ 66.6 µM)	515 ± 8.3	230 ± 8.3	Gyr-B inhibition in words [2]: moderately inhibited; MIC [3, 11]: 64 µg/mL (≈ 266 µM); CC50 [5, 10]: 20.1 ± 0.56 µM
CC[C@H]1OC(=O)[C@H](C)[C@@H](O[C@H]2C[C@@](C)(OC)[C@@H](O)[C@H](C)O2)[C@H](C)[C@@H](O[C@@H]2O[C@H](C)C[C@H](N(C)C)[C@H]2O)[C@](C)(O)C[C@@H](C)CN(C)[C@H](C)[C@@H](O)[C@]1(C)O [Azithromycin, reference compound]										MIC (antibiotic susceptibility) E. coli MDRb [4]: 16 µg/mL (≈ 21.4 µM)
Cc1cc(O)c2c(c1)C(=O)c1cc(O)cc(O)c1C2=O [Emodin]	more potent	0.81 ± 0.3	0.22 ± 0.1	2 (≈ 7.4 µM)	2 (≈ 7.4 µM)	2 (≈ 7.4 µM)	2 (≈ 7.4 µM)	216 ± 5.6	102 ± 4.8	CC50 [5]: 49.2 ± 1.39 µM; MIC [6]: 2 to 4 µg/mL (≈ 7.4 to 14.8 µM)
O=C1c2ccccc2C(=O)c2c1ccc(O)c2O [Alizarin]	moderately inhibited	17.9 ± 1.2	10.4 ± 1.1					468 ± 6.5	220 ± 4.3	Gyr-B inhibition in words [2]: moderately inhibited; MIC ([3]; read-out: MIC E. coli): 64 µg/mL (≈ 266 µM); MIC ([3]; read-out: MIC E. coli (MDR) a): 64 µg/mL (≈ 266 µM); MIC [4]: > 64 µg/mL; MIC (MRSA (ATCC 25529)): 64 µg/mL (≈ 266 µM); MIC (VRSA (clinical isolate)): > 64 µg/mL; MIC VRSA (VRSA (clinical isolate); [8]): >64 µg/mL; CC50 [5, 12]: 25.9 ± 0.69 µM
N[C@@H]1CON=C1O [D-cycloserine, reference compound]				16 (≈ 157 µM)	16 (≈ 157 µM)	32 (≈ 313 µM)	32 (≈ 313 µM)	362	118 ± 11.7	
CO/N=C(\C(=O)N[C@@H]1C(=O)N2C(C(=O)O)=C(COC(C)=O)CS[C@H]12)c1csc(N)n1 [Cefotaxime, reference compound]										MIC (antibiotic susceptibility) E. coli MDRa [3]: 32 µg/mL (≈ 70.3 µM); MIC (antibiotic susceptibility) E. coli MDRb [4]: 64 µg/mL (≈ 141 µM)
COc1ccc(Cc2nccc3cc(OC)c(OC)cc23)cc1OC [Papaverine]		> 100		> 64	> 64	> 64	> 64			CC50 [5]: 36.8 ± 0.93 µM; Antibacterial activity in words, all tested bacteria [6]: inactive
CC(C)(O/N=C(\C(=O)N[C@@H]1C(=O)N2C(C(=O)[O-])=C(C[n+]3ccccc3)CS[C@H]12)c1csc(N)n1)C(=O)O [Ceftazidime, reference compound]										MIC (antibiotic susceptibility) E. coli MDRa [3]: 32 µg/mL (≈ 58.5 µM); MIC (antibiotic susceptibility) E. coli MDRb [4]: 16 µg/mL (≈ 29.3 µM)
NCC[C@H](O)C(=O)N[C@@H]1C[C@H](N)[C@@H](O[C@H]2O[C@H](CN)[C@@H](O)[C@H](O)[C@H]2O)[C@H](O)[C@H]1O[C@H]1O[C@H](CO)[C@@H](O)[C@H](N)[C@H]1O [Amikacin, reference compound]										MIC (antibiotic susceptibility) E. coli MDRb [4]: 8 µg/mL (≈ 13.7 µM)
O=C(O)c1cc(O)c2c(c1)C(=O)c1cccc(O)c1C2=O [Rhein]	more potent	11.5 ± 1.2	7.33 ± 0.9	8 (≈ 28.1 µM)	2 (≈ 7.04 µM)	> 64	8 (≈ 28.1 µM)			IC50 [1]: 281 ± 6.1 µM; Ki [1]: 133 ± 2.3 µM; CC50 [5, 12]: > 50 µM
COc1cccc2c1C(=O)c1c(O)c3c(c(O)c1C2=O)C[C@@](O)(C(=O)CO)C[C@@H]3O[C@H]1C[C@H](N)[C@H](O)[C@H](C)O1 [Doxorubicin, reference compound]										CC50 [5]: 26.2 ± 0.61 µM
C[C@H]1COc2c(N3CCN(C)CC3)c(F)cc3c(=O)c(C(=O)O)cn1c23 [Levofloxacin, reference compound]										MIC (antibiotic susceptibility) E. coli MDRa [3]: 16 µg/mL (≈ 44.3 µM)
CO[C@@H]1[C@@H](OC(N)=O)[C@@H](O)[C@H](Oc2ccc3c(O)c(NC(=O)c4ccc(O)c(CC=C(C)C)c4)c(=O)oc3c2C)OC1(C)C [Novobiocin, reference compound]				64 (≈ 104 µM)	64 (≈ 104 µM)	1 (≈ 1.63 µM)	1 (≈ 1.63 µM)			
